Assay [1] has as its system ZO-1 localization in hCMEC/D3 cells. Put plainly: ZO-1 localization to cell-cell junctions (tight junction integrity) in peptide-lined vessels. The format is cell-based. To be noted: for ZO-1 staining localization to cell-cell junctions (images): photoink formulation no. 1, static conditions for five days; for Root mean square ZO-1 intensity quantification (barrier formation): photoink formulation no. 1, static culture day 5, p<0.05. The protocol: (§1) P23 hCMEC/D3 endothelial cells (with and without transfection with RFP-LifeAct) were cultured until 90% confluent, trypsinized, and suspended at a concentration of 50M/mL for hydrogel cell seeding. Hydrogels were seeded with 22 μL of 12.5 M/mL and placed face up at the bottom of six well plate with 1 mL of EGM-2 incubated at 37° C./5% CO2. The cell seeding technique included 90° rotations every 30 minutes with additional seeding every hour for 4 hours. Following initial seeding, 8.8 μL of 12.5 M/mL HCMEC/D3 were injected into the bifurcation geometry for vessel coating. After 4 hours, hydrogels were kept in static culture for 4-5 days in EGM-2.
Vessels cultured in static conditions for four days were hooked up to pressure driven flow using an Arduino-controlled peristaltic pump. Gels were ported inside a perfusion chamber with 20-gauge PTFE catheter tips connected to luer locks with tygon tubing (McMaster Carr). Vessels were connected in parallel through a dampener with EGM-2 for 24 hours at a flow rate of ˜5 mL/min or 44.4 dyne/cm^2 shear stress in the branches and 1.68 dyne/cm^2 in the region adjacent to the bifurcation.
Following static and/or flow culture within the vessels, hydrogels were washed 3× in PBS and placed in 4% paraformaldehyde for 20 minutes. Gels were washed in PBS and a primary monoclonal antibody for zonula-occluden-1 (ZO-1) (Cell Signaling Technologies) was added at 1:250 in PBS and incubated at 4° C. for 48 hours. Gels were then washed for 10 minutes 3× in PBS on the rocker. Far red-labeled ZO-1 secondary antibody (Cell Signaling Technologies) was diluted 1:250 in PBS along with Hoesch at 2 ug/ml. Solution was added to the gels and incubated for 1 hour at 37° C. Gels were then washed and imaged on a Nikon Eclipse Ti Confocal microscope.
(§2) In order to quantify cell spreading, a z-projection was used with an arbitrary ROI to quantify the percentage of the area covered by cells. Three different ROI's were analyzed to provide an average and standard deviation. ZO-1 intensity was quantified in both static and perfused culture at different locations within the branched network. The image intensity along approximately 70-μm lines across the image plane were plotted to quantify ZO-1 localization to cell-cell junctions. […] ImageJ was used for all image processing and analysis.
(§3) A two-factor ANOVA was calculated to test for significance in the two variables of time and peptide coating in the cell spreading assay. In order to test for significance in the ZO-1 localization experiments, a one-factor ANOVA was calculated for each peptide condition tested.

Assay [2] has as its system hCMEC/D3 endothelial cells. The experiment in a line: Endothelial spreading and cell coverage in peptide-lined DLP-printed channels. As to conditions: for Cell spreading and vessel coverage over time: 650 μm channels in photoink formulation no. 1, 5-day static culture, images on days 1, 3, 5; for Percent cell coverage within the vessel versus control / other motifs: 650 μm channels in photoink formulation no. 1, static culture, day 5, peptide clicked to channel wall; for Microenvironment for vessel coverage and development of barrier function: overall statement covering coverage and ZO-1 results in hCMEC/D3 endothelial cells. Type of assay: cell-based. The protocol:
Radicalized driven thiol-ene reaction schemes were utilized for functionalizing biomaterials. Several thiolated peptide cell binding motifs were functionalized to the walls of the printed geometry. Fluorescent labeled peptides were first synthesized via peptide synthesizer. […] Lyophilized RFP and GFP were both brought to room temperature and diluted to 10 mg/mL in 1×PBS. The bifurcation geometry print included RFP peptide in the bulk solution at 1:1000, while 300 μL of GFP was flowed into the channel at 10 μg/mL and hit with […] for 180 seconds. Process was repeated in the same manner for channel functionalization of the ‘RU’ geometry. Similarly, HAVDI(HAVDIGGGC), derived from N-Cadherein and RGD(GCGYGRGDSPG), derived from multiple ECM proteins, were synthesized and purchased from Genscript. IKVAV(GCGGGIKVAVG), a laminin derived motif, was fabricated using a peptide synthesizer. 5 mg/mL Irgacure 12959 was diluted to 0.5 mg/mL in PBS and thiolated peptide was added to a final concentration of 5 mM. 50 μL of peptide solution was injected into the channel and 10 mW/cm^2 was radiated onto surface of gel for 60 seconds. This process was repeated after inverting the gel to assure full coverage of the peptide onto the surface of the channel. Gels were then washed out 2× for 30 minutes in PBS to remove any unbound peptide.
as §1, §2
Imaging was performed on a Nikon Eclipse Ti Confocal Microscope to assess cell spreading, morphology, and proliferation in 3D overtime within these microvessels. Images were taken on days 1, 3, and 5 following cell seeding.
as §3

“Also recorded” adds a separate entry of the source.

For the sequence “GCGGGIKVAVG [thiolated laminin derived motif, covalently clicked to channel walls]”, in assay [1], the “ZO-1 staining localization to cell-cell junctions (images)” value (“ZO-1 staining localization” below) is “increase zonula occulends-1 (“ZO-1”) localization to cell-cell junctions; also recorded: exhibited more ZO-1 localization to the cell-cell junctions”; the “Root mean square ZO-1 intensity quantification (barrier formation)” value was “significantly higher barrier formation than the RGD and control-lined channels”. In assay [2], the “Cell spreading and vessel coverage over time” value was “exhibited no noticeable difference in vessel coverage throughout the 5-day static culture”; the “Percent cell coverage within the vessel versus control / other motifs” value is on record as “significantly improve endothelialization compared to other motifs; also recorded: significantly higher coverage than the control condition”; the “Microenvironment for vessel coverage and development of barrier function” value is “provide the most favorable microenvironment for both vessel coverage and development of barrier function”.

Turning to “GCGYGRGDSPG [thiolated peptide motif derived from multiple ECM proteins, clicked to channel walls or in the bulk photoink]”, the “ZO-1 localization in response to flow” value in assay [1] (network topology designed to induce flow separation, fully developed versus disturbed flow) is “no significant difference in ZO-1 localization in response to fully developed and disturbed flow”. Further, the “ZO-1 staining localization” value in assay [1] is on record as “the ZO-1 was the most diffuse in this condition; also recorded: did not result in the highest ZO-1 localization to cell-cell junctions”. In addition, the “Cell spreading and vessel coverage over time” value in assay [2] was “exhibited immediate spreading on PEG-norbornene and progressed linearly overtime; also recorded: increased cell spreading”. In addition, in assay [2] (bifurcation vessel, endothelial cells only, before seeding astrocytes), the “Endothelial coverage of the branched (bifurcation) topology” value is reported as “full channel coverage was possible”.

On to HAVDIGGGC, for which, in assay [1], the “ZO-1 staining localization” value is “increase zonula occulends-1 (“ZO-1”) localization to cell-cell junctions; also recorded: ZO-1 junctional staining was the clearest; also recorded: induced the highest ZO-1 localization to the cell-cell junctions”; the “Root mean square ZO-1 intensity quantification (barrier formation)” value is “significantly higher barrier formation than the RGD and control-lined channels”. Further, in assay [2], the “Cell spreading and vessel coverage over time” value is “over the course of the experiment cells began to spread and cover the walls; also recorded: took several days to spread and cover the vessel wall”; the “Percent cell coverage within the vessel versus control / other motifs” value was “significantly improve endothelialization compared to other motifs; also recorded: significantly higher coverage than the control condition”; the “Microenvironment for vessel coverage and development of barrier function” value is “provide the most favorable microenvironment for both vessel coverage and development of barrier function”.
